Source: US8669072B2, “Oxadiazoline ligands for modulating the expression of exogenous genes via an ecdysone receptor complex” (Intrexon Corporation, priority 2003, dated 2014)

Tests used:
[1] = biological target: T1, GAL4 DBD-CfEcR(DEF)/VP16AD-MmRXRE (Choristoneura fumiferana, UniProt O77240); assay: 13B3 assay: luciferase reporter gene induction in stable CHO clone 13B3; assay type: cell-based; conditions: for fold induction at 33.3 µM / Fold Induction Average, 13B3 assay: 48 h; for fold induction at 33.3 µM: read-out: Fold Induction Average, 13B3 assay; for Rel Max FI, 13B3 assay: maximum fold induction relative to that of GS-E ligand; for Fold Induction Average, 13B3 assay: 33/33.3 μM ligand, RLU relative to DMSO
T1 construct: The wild-type D, E, and F domains from spruce budworm Choristoneura fumiferana EcR (“CfEcR-DEF”)
How it was run: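 Stable CHO clone 13B3 co-expressing GAL4 DBD-CfEcR(DEF) and VP16AD-MmRXRE with a GAL4 RE-luciferase reporter; ligands from DMSO stocks diluted 300-fold. Luciferase read by luminescence 48 h after treatment, duplicate wells averaged. Fold induction = RLU treated/RLU DMSO; EC50 from three-parameter logistic fit.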

Bombyx mori EcR (VBE) = biological target: T2, Bombyx mori EcR (VBE) (Bombyx mori, UniProt P49881); assay: Z3 assay: β-galactosidase reporter gene induction in HEK-293 clone Z3 (CVBE / 6XEcRE LacZ); assay type: cell-based; conditions: for fold induction at 33 µM: HEK293, 48 h, read-out: Fold Induction Average, Z3 assay; for Rel Max FI, Z3 assay: maximum fold induction relative to that of GS-E ligand; for Fold Induction Average, Z3 assay: 33 μM ligand, 48 h, RLU relative to DMSO
T2 construct: expressed in transfected cells; host or cells: Human HEK-293 cells, retrovirally infected, clone Z3
T2 sequence (P49881 86-606 limits assumed): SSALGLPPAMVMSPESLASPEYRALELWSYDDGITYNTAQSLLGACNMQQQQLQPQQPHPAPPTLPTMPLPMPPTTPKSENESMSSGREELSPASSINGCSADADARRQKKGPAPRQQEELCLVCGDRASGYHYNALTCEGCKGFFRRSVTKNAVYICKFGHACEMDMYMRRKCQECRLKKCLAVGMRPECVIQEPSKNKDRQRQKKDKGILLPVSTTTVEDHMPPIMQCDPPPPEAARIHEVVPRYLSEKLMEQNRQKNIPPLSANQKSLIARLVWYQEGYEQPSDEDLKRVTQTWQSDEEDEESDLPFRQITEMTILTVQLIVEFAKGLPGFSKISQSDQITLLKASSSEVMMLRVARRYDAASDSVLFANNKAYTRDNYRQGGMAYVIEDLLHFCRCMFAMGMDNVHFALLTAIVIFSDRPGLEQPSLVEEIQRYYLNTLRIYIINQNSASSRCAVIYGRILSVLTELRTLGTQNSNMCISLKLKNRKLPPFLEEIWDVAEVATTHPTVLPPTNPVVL
T2 sequence (P19793 1-462 partner): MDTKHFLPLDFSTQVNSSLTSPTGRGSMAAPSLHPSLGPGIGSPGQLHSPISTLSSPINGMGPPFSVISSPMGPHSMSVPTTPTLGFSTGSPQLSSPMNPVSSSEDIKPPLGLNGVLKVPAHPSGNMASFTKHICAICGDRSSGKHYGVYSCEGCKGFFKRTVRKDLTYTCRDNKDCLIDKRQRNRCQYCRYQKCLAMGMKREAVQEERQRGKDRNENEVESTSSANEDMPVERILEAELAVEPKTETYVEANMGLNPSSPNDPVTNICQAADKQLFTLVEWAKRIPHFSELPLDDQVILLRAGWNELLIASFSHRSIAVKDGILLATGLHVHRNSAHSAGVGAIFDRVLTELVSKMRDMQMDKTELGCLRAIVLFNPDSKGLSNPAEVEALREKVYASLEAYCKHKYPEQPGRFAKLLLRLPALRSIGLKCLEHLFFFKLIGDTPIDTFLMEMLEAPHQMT

[2] = biological target: CfEcR (CDEF)/CfUSP, GST fusion protein (Choristoneura fumiferana, UniProt O77240); assay: CfEcR (CDEF)/CfUSP GST fusion protein assay; assay type: binding
Chain of CfEcR (CDEF)/CfUSP, GST fusion protein (O77240 entry or part of it): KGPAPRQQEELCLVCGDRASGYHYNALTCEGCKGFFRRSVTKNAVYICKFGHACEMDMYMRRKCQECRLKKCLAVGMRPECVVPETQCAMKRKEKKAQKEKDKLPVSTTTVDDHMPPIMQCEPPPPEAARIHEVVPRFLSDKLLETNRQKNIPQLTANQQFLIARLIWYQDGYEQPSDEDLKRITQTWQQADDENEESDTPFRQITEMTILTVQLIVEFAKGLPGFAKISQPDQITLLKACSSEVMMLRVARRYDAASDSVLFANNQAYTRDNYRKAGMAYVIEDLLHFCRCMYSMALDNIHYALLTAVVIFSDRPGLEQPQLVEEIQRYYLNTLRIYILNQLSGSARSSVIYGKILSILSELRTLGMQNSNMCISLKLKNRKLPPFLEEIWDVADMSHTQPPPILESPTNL
Chain of CfEcR (CDEF)/CfUSP, GST fusion protein (O76202 whole entry, further chain, the tested form may be a part): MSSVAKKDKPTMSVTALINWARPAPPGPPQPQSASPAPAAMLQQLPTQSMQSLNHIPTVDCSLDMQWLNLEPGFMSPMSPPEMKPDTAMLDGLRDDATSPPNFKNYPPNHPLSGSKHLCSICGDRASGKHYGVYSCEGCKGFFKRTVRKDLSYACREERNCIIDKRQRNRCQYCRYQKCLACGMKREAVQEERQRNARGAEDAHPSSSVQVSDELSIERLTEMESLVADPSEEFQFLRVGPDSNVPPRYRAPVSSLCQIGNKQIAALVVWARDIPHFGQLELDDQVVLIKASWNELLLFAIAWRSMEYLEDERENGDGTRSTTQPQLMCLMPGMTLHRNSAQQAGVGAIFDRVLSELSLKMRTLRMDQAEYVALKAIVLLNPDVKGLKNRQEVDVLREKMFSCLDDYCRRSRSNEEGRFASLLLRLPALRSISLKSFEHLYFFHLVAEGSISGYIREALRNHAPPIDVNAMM

[3] = test system: MTA (two-spotted spider mite); assay: Insect toxicity contact bioassay, MTA; assay type: in vivo; conditions: 150 ppm
Procedure: (§1) The compound to be evaluated was dissolved in an appropriate solvent, usually a mix of acetone, methanol, and water. Test solutions were made by serial dilution of a stock test solution with acetone, methanol, and water. Initial evaluations were made at one or more concentrations on one or more of the following insects:
(§2) Contact bioassays (green peach aphid, two-spotted spider mite, white fly) were conducted by applying a solution of the test compound to the inside surface of a Petri dish. The solution was allowed to air-dry, then each dish was infested and the larvae from each treatment were transferred to a bioassay tray. The trays were held for one to seven days, and the mortality rating was determined for each treatment.

Beet Armyworm = assay: Insect toxicity feeding bioassay, BAW; assay type: in vivo; conditions: 150 ppm
Procedure: as §1
(§3) Feeding bioassays were conducted in bioassay trays containing insect diet. Treatments were made by applying 50 μL of test solution to the surface of the diet in each of 5 wells. After the test solution dried, each well was infested with a single neonate larva. The trays were held for six days and then the mortality rating was determined for each treatment.

Cabbage Looper = assay: Insect toxicity feeding bioassay, CL; assay type: in vivo; conditions: 150 ppm
Procedure: as §1, §3

Tobacco Budworm = assay: Insect toxicity bioassay, TBW; assay type: in vivo; conditions: 150 ppm
Procedure: as §1, §3
Some of the tobacco budworm tests were conducted as follows. A test solution containing 600 ppm was made by dissolving a compound of the invention in a 1:1 acetone:methanol solution, then adding water to give a 5:5:90 acetone:methanol:water solution, and finally a surfactant was added at an equivalent of 7.37 g of surfactant per 100 L of test solution (1 ounce of surfactant per 100 gallons of test solution). Appropriate dilutions were prepared in water from the 600 ppm solution. A detached cotton leaf, Gossypium hirsutum was placed on moistened filter paper in a Petri dish (100×20 mms). The leaf was sprayed with the test solution using a rotating turntable sprayer and allowed to dry. The dish was infested with 10 first instar larvae of the tobacco budworm and covered with the lid. If the larvae were alive two days after treatment, fresh untreated cotton leaves were added. All treatments were maintained at 23.9-26.7° C. (75-80° F.) under fluorescent light in a well-ventilated room. Percent mortality was determined at four days after treatment.

WFN (white fly) = assay: Insect toxicity contact bioassay, WFN; assay type: in vivo; conditions: 150 ppm
Procedure: as §1, §2

[4] = biological target: T3, GAL4 DBD (1-147)-CfEcR(DEF)/VP16AD-βRXREF-LmUSPEF (Choristoneura fumiferana, UniProt O77240); assay: cell-based; conditions: for fold induction at 33.3 µM: 48 h, read-out: Fold Induction Average, 27-63 assay; for Rel Max FI, 27-63 assay: maximum fold induction relative to that of GS-E ligand
T3 construct: The wild-type D, E, and F domains from spruce budworm Choristoneura fumiferana EcR (“CfEcR-DEF”)
Procedure: Stably transfected cells were selected by Zeocin resistance. Individually isolated CHO cell clones were transiently transfected with a GAL4 RE-luciferase reporter (pFR Luc). 27-63 clone was selected using Hygromycin.
Cells were trypsinized and diluted to a concentration of 2.5×10^4 cells mL. 100 μL of cell suspension was placed in each well of a 96 well plate and incubated at 37° C. under 5% CO2 for 24 h. Ligand stock solutions were prepared in DMSO and diluted 300 fold for all treatments.
Luciferase reporter gene expression was measured 48 h after cell treatment using Bright-Glo™ Luciferase Assay System from Promega (E2650). Luminescence was detected at room temperature using a Dynex MLX microtiter plate luminometer.
Each assay was conducted in two separate wells, and the two values were averaged. Fold inductions were calculated by dividing relative light units (“RLU”) in ligand treated cells with RLU in DMSO treated cells. EC50s were calculated from dose response data using a three-parameter logistic model.

For `CCOC(=O)CCC(=O)NN1C(c2cc(C)cc(C)c2)=NOC1(C)CC` (centres unmarked) [RG-120126], the EC50 [1] was over 33.3 µM, the fold induction at 33.3 µM [1] was 0.4 and the “Rel Max FI, 13B3 assay” value [1] was 0. For the same molecule, the EC50 (Bombyx mori EcR (VBE)) was over 50 µM, the fold induction at 33 µM (Bombyx mori EcR (VBE)) was 2.4 and the “Rel Max FI, Z3 assay” value (Bombyx mori EcR (VBE)) was 0.04. For the same molecule, the EC50 ([2]; GST fusion protein, read-out: CfEcR EC50) was 0.136 µM, the “Insect Toxicity % control @ 150 ppm, MTA” value [3] was 0% @ 150 and the “Insect Toxicity % control @ 150 ppm, BAW” value (Beet Armyworm) was 0% @ 150. For the same molecule, the “Insect Toxicity % control @ 150 ppm, CL” value (Cabbage Looper) was 0% @ 150, the “Insect Toxicity % control @ 150 ppm, TBW” value (Tobacco Budworm) was 0% @ 150 and the “Insect Toxicity % control @ 150 ppm, WFN” value (WFN (white fly)) was 79% @ 150.

For `CCc1c(OC)cccc1C(=O)NN1C(c2ccc(Cl)cc2)=NOC1(C)C` [RG-120099], the EC50 [4] was about 20 µM, the fold induction at 33.3 µM [4] was 1330 and the “Rel Max FI, 27-63 assay” value [4] was 0.64. The fold induction at 33 µM (Bombyx mori EcR (VBE)) was 0.2, the “Insect Toxicity % control @ 150 ppm, MTA” value [3] was 0% @ 150 and the “Insect Toxicity % control @ 150 ppm, BAW” value (Beet Armyworm) was 100% @ 150. The “Insect Toxicity % control @ 150 ppm, CL” value (Cabbage Looper) was 40% @ 150, the “Insect Toxicity % control @ 150 ppm, TBW” value (Tobacco Budworm) was 0% @ 150 and the “Insect Toxicity % control @ 150 ppm, WFN” value (WFN (white fly)) was 0% @ 150.

With `Cc1cc(C)cc(C2=NOC3(CCCC3)N2NC(=O)c2cc3ccccc3s2)c1` [RG-120152] the “Fold Induction Average, 13B3 assay” value [1] was 264.3, the “Fold Induction Average, Z3 assay” value (Bombyx mori EcR (VBE)) was 59.9 and the “CfEcR % @ 1 uM” value ([2]; 1 uM) was 92% @ 1 uM.

With `COc1ccc(C2=NOC(C)(C)N2NC(=O)c2ccccc2)c(OC)c1` [RG-120096] the EC50 [1] was over 33.3 µM, the fold induction at 33.3 µM [1] was 0.2 and the “Rel Max FI, 13B3 assay” value [1] was 0. The EC50 (Bombyx mori EcR (VBE)) was over 50 µM, the fold induction at 33 µM (Bombyx mori EcR (VBE)) was 0.7 and the “Rel Max FI, Z3 assay” value (Bombyx mori EcR (VBE)) was 0. For the same molecule, the “Insect Toxicity % control @ 150 ppm, MTA” value [3] was 74 @ 150%, the “Insect Toxicity % control @ 150 ppm, BAW” value (Beet Armyworm) was 0% @ 150 and the “Insect Toxicity % control @ 150 ppm, CL” value (Cabbage Looper) was 60% @ 150. The “Insect Toxicity % control @ 150 ppm, TBW” value (Tobacco Budworm) was 0% @ 150 and the “Insect Toxicity % control @ 150 ppm, WFN” value (WFN (white fly)) was 55% @ 150.

In the case of `CCc1ccc(C(=O)NN2C(c3ccc(Cl)cc3)=NOC2(C)C)cc1` [RG-120035], the fold induction at 33.3 µM [1] is reported as 1.2, the fold induction at 33 µM (Bombyx mori EcR (VBE)) is reported as 9.1 and the “Insect Toxicity % control @ 150 ppm, MTA” value [3] is reported as 0% @ 150. The “Insect Toxicity % control @ 150 ppm, BAW” value (Beet Armyworm) was 40% @ 150, the “Insect Toxicity % control @ 150 ppm, CL” value (Cabbage Looper) was 100% @ 150 and the “Insect Toxicity % control @ 150 ppm, TBW” value (Tobacco Budworm) was 0% @ 150. The “Insect Toxicity % control @ 150 ppm, WFN” value (WFN (white fly)) was 0% @ 150.

`CCc1ccc(C(=O)NN2C(c3ccccc3OC)=NOC2(C)C)cc1` [RG-120026] gave a fold induction at 33.3 µM [1] of 0.9, an EC50 [4] of over 33 µM and a fold induction at 33.3 µM [4] of 8.5. For the same molecule, the “Rel Max FI, 27-63 assay” value [4] was 0, the fold induction at 33 µM (Bombyx mori EcR (VBE)) was 41.1 and the “Insect Toxicity % control @ 150 ppm, MTA” value [3] was 40% @ 150. The “Insect Toxicity % control @ 150 ppm, BAW” value (Beet Armyworm) was 100% @ 150, the “Insect Toxicity % control @ 150 ppm, CL” value (Cabbage Looper) was 0% @ 150 and the “Insect Toxicity % control @ 150 ppm, TBW” value (Tobacco Budworm) was 0% @ 150. For the same molecule, the “Insect Toxicity % control @ 150 ppm, WFN” value (WFN (white fly)) was 0% @ 150.

For `CC1(C)ON=C(c2cccc(C(F)(F)F)c2)N1NC(=O)Nc1ccccc1` [RG-120001], the “Fold Induction Average, 13B3 assay” value [1] was 3.3, the “Fold Induction Average, Z3 assay” value (Bombyx mori EcR (VBE)) was 0.3 and the “Insect Toxicity % control @ 150 ppm, MTA” value [3] was 0% @ 150. The “Insect Toxicity % control @ 150 ppm, BAW” value (Beet Armyworm) was 80% @ 150, the “Insect Toxicity % control @ 150 ppm, CL” value (Cabbage Looper) was 20% @ 150 and the “Insect Toxicity % control @ 150 ppm, TBW” value (Tobacco Budworm) was 0% @ 150. The “Insect Toxicity % control @ 150 ppm, WFN” value (WFN (white fly)) was 0% @ 150.
